Test results from patent US12077503B2, “Substituted cyclic amides and their use as herbicides” (FMC CORPORATION, priority 2015, dated 2024).

Columns and labels:
Format in all cases: in vivo
Kochia (Kochia scoparia) [1] = assay: Test A preemergence; details: Bassia scoparia, pre-emergence, 240 h, 0 to 100 scale (0 no effect, 100 complete control), read-out: Plant response rating, Kochia; for pest or weed control at 500 g/ha: 500 g ai/ha, preemergence; for pest or weed control at 125 g/ha: Preemergence, 125 g ai/ha
Outline: (§1)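 Preemergence directed soil spray on seeded pots, or postemergence application to plants 2–10 cm, one- to two-leaf. Solvent mixture non-phytotoxic, with surfactant. Scored ~10 d later, visually, 0–100 vs untreated.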

[2] = system: ragweed (common ragweed, Ambrosia elatior); assay: Test A preemergence; details: Ambrosia artemisiifolia, pre-emergence, 240 h, 0 to 100 scale (0 no effect, 100 complete control), read-out: Plant response rating, Ragweed; for pest or weed control at 500 g/ha: 500 g ai/ha, preemergence; for pest or weed control at 125 g/ha: Preemergence, 125 g ai/ha
Outline: as §1

[3] = system: barnyardgrass (Echinochloa crus-galli); assay: Test A preemergence; details: Echinochloa crus-galli, pre-emergence, 240 h, 0 to 100 scale (0 no effect, 100 complete control), read-out: Plant response rating, Barnyardgrass; for pest or weed control at 500 g/ha: 500 g ai/ha, preemergence; for pest or weed control at 125 g/ha: Preemergence, 125 g ai/ha
Outline: as §1

[4] = system: ryegrass, Italian (Italian ryegrass, Lolium multiflorum); assay: Test A preemergence; details: Lolium multiflorum, pre-emergence, 240 h, 0 to 100 scale (0 no effect, 100 complete control), read-out: Plant response rating, Ryegrass, Italian; for pest or weed control at 500 g/ha: 500 g ai/ha, preemergence; for pest or weed control at 125 g/ha: Preemergence, 125 g ai/ha
Outline: as §1

[5] = system: pigweed (Amaranthus retroflexus); assay: Test A preemergence; details: Amaranthus retroflexus, pre-emergence, 240 h, 0 to 100 scale (0 no effect, 100 complete control), read-out: Plant response rating, Pigweed; for pest or weed control at 500 g/ha: 500 g ai/ha, preemergence; for pest or weed control at 125 g/ha: Preemergence, 125 g ai/ha
[6] = system: giant foxtail (Setaria faberii); assay: Test A postemergence; details: Setaria faberi, post-emergence, 240 h, Postemergence, read-out: Plant response rating, Foxtail, Giant; for pest or weed control at 125 g/ha: 125 g ai/ha, visual injury after approx. 10 d, 0 to 100 scale, 0 no effect, 100 complete control; for pest or weed control at 500 g/ha: 500 g ai/ha, visual injury, 0 to 100 scale (0 no effect, 100 complete control), approx. 10 d
Outline: as §1

Kochia (Kochia scoparia) [7] = assay: Test A postemergence; details: Bassia scoparia, post-emergence, 240 h, Postemergence, read-out: Plant response rating, Kochia; for pest or weed control at 125 g/ha: 125 g ai/ha, visual injury after approx. 10 d, 0 to 100 scale, 0 no effect, 100 complete control; for pest or weed control at 500 g/ha: 500 g ai/ha, visual injury, 0 to 100 scale (0 no effect, 100 complete control), approx. 10 d
Outline: as §1

[8] = system: ragweed (common ragweed, Ambrosia elatior); assay: Test A postemergence; details: Ambrosia artemisiifolia, post-emergence, 240 h, Postemergence, read-out: Plant response rating, Ragweed; for pest or weed control at 125 g/ha: 125 g ai/ha, visual injury after approx. 10 d, 0 to 100 scale, 0 no effect, 100 complete control; for pest or weed control at 500 g/ha: 500 g ai/ha, visual injury, 0 to 100 scale (0 no effect, 100 complete control), approx. 10 d
Outline: as §1

[9] = system: barnyardgrass (Echinochloa crus-galli); assay: Test A postemergence; details: Echinochloa crus-galli, post-emergence, 240 h, Postemergence, read-out: Plant response rating, Barnyardgrass; for pest or weed control at 125 g/ha: 125 g ai/ha, visual injury after approx. 10 d, 0 to 100 scale, 0 no effect, 100 complete control; for pest or weed control at 500 g/ha: 500 g ai/ha, visual injury, 0 to 100 scale (0 no effect, 100 complete control), approx. 10 d
Outline: as §1

[10] = system: ryegrass, Italian (Italian ryegrass, Lolium multiflorum); assay: Test A postemergence; details: Lolium multiflorum, post-emergence, 240 h, Postemergence, read-out: Plant response rating, Ryegrass, Italian; for pest or weed control at 125 g/ha: 125 g ai/ha, visual injury after approx. 10 d, 0 to 100 scale, 0 no effect, 100 complete control; for pest or weed control at 500 g/ha: 500 g ai/ha, visual injury, 0 to 100 scale (0 no effect, 100 complete control), approx. 10 d
Outline: as §1

[11] = system: blackgrass (Alopecurus myosuroides); assay: Test A postemergence; details: Alopecurus myosuroides, post-emergence, 240 h, Postemergence, read-out: Plant response rating, Blackgrass; for pest or weed control at 125 g/ha: 125 g ai/ha, visual injury after approx. 10 d, 0 to 100 scale, 0 no effect, 100 complete control; for pest or weed control at 500 g/ha: 500 g ai/ha, visual injury, 0 to 100 scale (0 no effect, 100 complete control), approx. 10 d
Outline: as §1

[12] = system: wheat (Triticum aestivum); assay: Test A postemergence; details: Triticum aestivum, post-emergence, 240 h, Postemergence, read-out: Plant response rating, Wheat; for plant injury at 125 g/ha: 125 g ai/ha, visual injury after approx. 10 d, 0 to 100 scale, 0 no effect, 100 complete control; for plant injury at 500 g/ha: 500 g ai/ha, visual injury, 0 to 100 scale (0 no effect, 100 complete control), approx. 10 d
Outline: as §1

[13] = system: Galium (catchweed bedstraw, Galium aparine); assay: Test A postemergence; details: Galium, post-emergence, 240 h, Postemergence, read-out: Plant response rating, Galium; for pest or weed control at 125 g/ha: 125 g ai/ha, visual injury after approx. 10 d, 0 to 100 scale, 0 no effect, 100 complete control; for pest or weed control at 500 g/ha: 500 g ai/ha, visual injury, 0 to 100 scale (0 no effect, 100 complete control), approx. 10 d
Outline: as §1

[14] = system: pigweed (Amaranthus retroflexus); assay: Test A postemergence; details: Amaranthus retroflexus, post-emergence, 240 h, Postemergence, read-out: Plant response rating, Pigweed; for pest or weed control at 125 g/ha: 125 g ai/ha, visual injury after approx. 10 d, 0 to 100 scale, 0 no effect, 100 complete control; for pest or weed control at 500 g/ha: 500 g ai/ha, visual injury, 0 to 100 scale (0 no effect, 100 complete control), approx. 10 d
Outline: as §1

corn (Zea mays) = assay: Test A postemergence; details: Zea mays, post-emergence, 240 h, Postemergence; for Corn plant response rating (crop injury, 0 = no effect, 100 = complete kill) at 125 g/ha: 125 g ai/ha, visual injury after approx. 10 d, 0 to 100 scale, 100 complete control; for Corn plant response rating (crop injury, 0 = no effect, 100 = complete kill) at 500 g/ha: 500 g ai/ha, visual injury, 0 to 100 scale (0 no effect, 100 complete control), approx. 10 d
Outline: as §1

| Structure (SMILES) | pest or weed control at 500 g/ha (Kochia (Kochia scoparia) [1]) [%] | pest or weed control at 125 g/ha (Kochia (Kochia scoparia) [1]) [%] | pest or weed control at 500 g/ha [2] [%] | pest or weed control at 125 g/ha [2] [%] | pest or weed control at 500 g/ha [3] [%] | pest or weed control at 125 g/ha [3] [%] | pest or weed control at 500 g/ha [4] [%] | pest or weed control at 125 g/ha [4] [%] | pest or weed control at 500 g/ha [5] [%] | pest or weed control at 125 g/ha [5] [%] | pest or weed control at 125 g/ha [6] [%] | pest or weed control at 500 g/ha [6] [%] | pest or weed control at 125 g/ha (Kochia (Kochia scoparia) [7]) [%] | pest or weed control at 500 g/ha (Kochia (Kochia scoparia) [7]) [%] | pest or weed control at 125 g/ha [8] [%] | pest or weed control at 500 g/ha [8] [%] | pest or weed control at 125 g/ha [9] [%] | pest or weed control at 500 g/ha [9] [%] | pest or weed control at 125 g/ha [10] [%] | pest or weed control at 500 g/ha [10] [%] | further results |
| --- | --- | --- | --- | --- | --- | --- | --- | --- | --- | --- | --- | --- | --- | --- | --- | --- | --- | --- | --- | --- | --- |
| Cc1ccc([C@H]2CN(C)C(=O)[C@@H]2C(=O)Nc2ccccc2F)cc1Cl [Compound 1384] | 70 | 30 | 0 | 0 | 90 | 90 | 70 | 30 | 30 | 30 | 80 | 90 | 40 | 60 | 40 | 40 | 90 | 90 | 30 | 30 | pest or weed control at 125 g/ha [11]: 0%; pest or weed control at 500 g/ha [11]: 30%; plant injury at 125 g/ha [12]: 0%; plant injury at 500 g/ha [12]: 50%; pest or weed control at 125 g/ha [13]: 30%; pest or weed control at 500 g/ha [13]: 70%; pest or weed control at 125 g/ha [14]: 0%; pest or weed control at 500 g/ha [14]: 20%; Corn plant response rating (crop injury, 0 = no effect, 100 = complete kill) at 125 g/ha (corn (Zea mays)): 70%; Corn plant response rating (crop injury, 0 = no effect, 100 = complete kill) at 500 g/ha (corn (Zea mays)): 90% |
| Cc1c(F)cccc1NC(=O)[C@H]1C(=O)N(C)C[C@@H]1c1ccc(C(F)(F)F)cc1 [Compound 1386] | 90 | 80 | 80 | 60 | 100 | 90 | 70 | 50 | 90 | 80 | 90 | 90 | 70 | 70 | 20 | 50 | 90 | 90 | 40 | 60 | pest or weed control at 125 g/ha [11]: 70%; pest or weed control at 500 g/ha [11]: 80%; plant injury at 125 g/ha [12]: 50%; plant injury at 500 g/ha [12]: 60%; pest or weed control at 125 g/ha [13]: 60%; pest or weed control at 500 g/ha [13]: 60%; pest or weed control at 125 g/ha [14]: 40%; pest or weed control at 500 g/ha [14]: 70%; Corn plant response rating (crop injury, 0 = no effect, 100 = complete kill) at 125 g/ha (corn (Zea mays)): 70%; Corn plant response rating (crop injury, 0 = no effect, 100 = complete kill) at 500 g/ha (corn (Zea mays)): 80% |
| CC(C)c1cccc([C@H]2CN(C)C(=O)[C@@H]2C(=O)Nc2cccc(F)c2F)c1 [Compound 1388] | 90 | 80 | 70 | 0 | 100 | 100 | 100 | 90 | 70 | 30 | 90 | 90 | 30 | 50 | 0 | 50 | 100 | 100 | 60 | 90 | pest or weed control at 125 g/ha [11]: 70%; pest or weed control at 500 g/ha [11]: 90%; plant injury at 125 g/ha [12]: 50%; plant injury at 500 g/ha [12]: 60%; pest or weed control at 125 g/ha [13]: 50%; pest or weed control at 500 g/ha [13]: 50%; pest or weed control at 125 g/ha [14]: 40%; pest or weed control at 500 g/ha [14]: 50%; Corn plant response rating (crop injury, 0 = no effect, 100 = complete kill) at 125 g/ha (corn (Zea mays)): 60%; Corn plant response rating (crop injury, 0 = no effect, 100 = complete kill) at 500 g/ha (corn (Zea mays)): 80% |
